This is an account of results in patent US20260109712A1, “RIFAMYCINS FOR NONTUBERCULOUS MYCOBACTERIA” (priority 2022, published 2026).

Values after ≈ are worked out from the molar mass of the structure shown.

One data set relates to M. abscessus ATCC 19977. In words: MIC assay in 96-well plate format, wild-type strain. The format is cell-based, Mycobacterium abscessus. The settings on record: for MICWT: Table 10. The gist of the method:
(§1)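 Two-fold, ten-point dilutions in 7H9 with 2% DMSO; mid-log culture diluted to OD600=0.1 (1×10^7 CFU/mL). Incubated 3 days at 37 °C, shaking 110 RPM; growth = Day 3 minus Day 0 OD600, expressed as percentage of drug-free growth and plotted against concentration. Two biological replicates.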

The test system of the next data set is Mycobacterium abscessus. Nature of the data set: MIC against Mycobacterium abscessus (strain not given). In kind it is cell-based. As to conditions: Table 13; read-out: Mab MIC.
In the next data set the test system is Δarr M. abscessus. Nature of the data set: MIC assay, isogenic arr-deleted strain. The format is cell-based, Mycobacterium abscessus. As to conditions: Table 10. An outline of the steps:
as §1

The nature of data set [1]: Plasma protein binding assay (rapid equilibrium dialysis). The format is in vitro ADME. The gist of the method:
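Rapid equilibrium dialysis ran 4 h at 37° C (300 RPM) with compound-spiked plasma (10,000 ng/mL) on one side and PBS on the other. Each side was then mixed 1:1 […] to equalise matrix before LC-MS/MS quantification.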
Background: In equilibrium dialysis only unbound substance equilibrates across the membrane.

Data set [2] is described as follows: Mouse pharmacokinetics studies. The format is in vivo, CD-1 mice. On the procedure: Blood was captured in CB300 blood collection tubes containing K2EDTA and stored on ice. Plasma was recovered after centrifugation and stored at −80° C. until analyzed by high pressure liquid chromatography coupled to tandem mass spectrometry (LC-MS/MS). Pharmacokinetic parameters were calculated using non-compartmental pharmacokinetic analysis. […] Extracts were vortexed for 5 minutes and centrifuged at 4000 RPM for 5 minutes. 75 μL of supernatant was transferred for LC-MS/MS analysis and diluted with 75 μL of Milli-Q deionized water. Rifabutin was purchased from Carbosynth. C25-desacetyl rifabutin and rifabutin-d7 were purchased from Toronto Research Chemical. Verapamil was purchased from Sigma-Aldrich. […] Multiple-reaction monitoring of parent/daughter transitions in electrospray positive-ionization mode was used to quantify all analytes. […] Data processing was performed using Analyst software (version 1.6.2; Applied Biosystems Sciex).

In the data set with M. abscessus ATCC 19977, `COc1ccc(C(=O)O[C@H]2[C@H](C)[C@H](O)[C@H](C)[C@@H](O)[C@@H](C)/C=C/C=C(\C)C(=O)NC3=C4NC5(CCN(CC(C)C)CC5)N=C4c4c(c(O)c(C)c5c4C(=O)[C@@](C)(O/C=C/[C@H](OC)[C@H]2C)O5)C3=O)cc1` [UMN10] returned an MICWT of 0.06 µM. In addition, the minimal inhibitory concentration (MIC) with Mycobacterium abscessus is 60 nM (≈ 0.0563 µg/mL). For the same compound, the MICΔorr with Δarr M. abscessus amounted to 0.065 µM. Further, in data set [1], the ƒu is reported as 0.02% and the plasma unbound fraction was 0%.
On the same counts, the results for `CO[C@H]1/C=C/O[C@@]2(C)Oc3c(C)c(O)c4c(c3C2=O)C2=NC3(CCN(CC(C)C)CC3)NC2=C(NC(=O)/C(C)=C/C=C/[C@H](C)[C@H](O)[C@@H](C)[C@@H](O)[C@@H](C)[C@H](OC(=O)c2ccc(F)cc2)[C@@H]1C)C4=O` [UMN11] are 0.13 µM, 130 nM (≈ 0.121 µg/mL), 0.069 µM, 0.02% and 0.02%.
The corresponding values for `CO[C@H]1/C=C/O[C@@]2(C)Oc3c(C)c(O)c4c(c3C2=O)C2=NC3(CCN(CC(C)C)CC3)NC2=C(NC(=O)/C(C)=C/C=C/[C@H](C)[C@H](O)[C@@H](C)[C@@H](O)[C@@H](C)[C@H](OC(=O)c2ccc(Cl)cc2)[C@@H]1C)C4=O` [UMN12] are 0.13 µM, 130 nM (≈ 0.123 µg/mL), 0.22 µM, 0.01% and 0.01%.
The corresponding values for `CO[C@H]1/C=C/O[C@@]2(C)Oc3c(C)c(O)c4c(c3C2=O)C2=NC3(CCN(CC(C)C)CC3)NC2=C(NC(=O)/C(C)=C/C=C/[C@H](C)[C@H](O)[C@@H](C)[C@@H](O)[C@@H](C)[C@H](OC(=O)c2ccc(C(F)(F)F)cc2)[C@@H]1C)C4=O` [UMN13] are 0.24 µM, 240 nM (≈ 0.235 µg/mL), 0.66 µM, 0% and 0%.
`CO[C@H]1/C=C/O[C@@]2(C)Oc3c(C)c(O)c4c(c3C2=O)C2=NC3(CCN(CC(C)C)CC3)NC2=C(NC(=O)/C(C)=C/C=C/[C@H](C)[C@H](O)[C@@H](C)[C@@H](O)[C@@H](C)[C@H](OC(=O)c2cccc(-c3ccccc3)c2)[C@@H]1C)C4=O` [UMN18]: in the data set with M. abscessus ATCC 19977, the MICWT came out at 1.10 µM. For the same compound, the MIC in the data set on Mycobacterium abscessus was 1100 nM (≈ 1.08 µg/mL). The same compound returned an MICΔorr in the data set on Δarr M. abscessus of 1.05 µM. For the same compound, in data set [1], the ƒu is listed as 0.01% and the plasma unbound fraction worked out at 0%.
The corresponding values for `CO[C@H]1/C=C/O[C@@]2(C)Oc3c(C)c(O)c4c(c3C2=O)C2=NC3(CCN(CC(C)C)CC3)NC2=C(NC(=O)/C(C)=C/C=C/[C@H](C)[C@H](O)[C@@H](C)[C@@H](O)[C@@H](C)[C@H](OC(=O)c2cccc(C(F)(F)F)c2)[C@@H]1C)C4=O` [UMN19] are 0.48 µM, 480 nM (≈ 0.469 µg/mL), 0.36 µM, 0% and 0%.
Take `COc1cccc(C(=O)O[C@H]2[C@H](C)[C@H](O)[C@H](C)[C@@H](O)[C@@H](C)/C=C/C=C(\C)C(=O)NC3=C4NC5(CCN(CC(C)C)CC5)N=C4c4c(c(O)c(C)c5c4C(=O)[C@@](C)(O/C=C/[C@H](OC)[C@H]2C)O5)C3=O)c1` [UMN26]: the MICWT with M. abscessus ATCC 19977 was found to be 0.13 µM. Further, the MIC with Mycobacterium abscessus was determined as 130 nM (≈ 0.122 µg/mL). Besides, the MICΔorr against Δarr M. abscessus is 0.13 µM. In data set [1], this compound showed a ƒu of 0.02% and a plasma unbound fraction of 0.02%.
Turning to `CO[C@H]1/C=C/O[C@@]2(C)Oc3c(C)c(O)c4c(c3C2=O)C2=NC3(CCN(CC(C)C)CC3)NC2=C(NC(=O)/C(C)=C/C=C/[C@H](C)[C@H](O)[C@@H](C)[C@@H](O)[C@@H](C)[C@H](OC(=O)c2cccc(Cl)c2)[C@@H]1C)C4=O` [UMN27], the MICWT with M. abscessus ATCC 19977 worked out at 0.14 µM. Further, the MIC in the data set on Mycobacterium abscessus was 140 nM (≈ 0.132 µg/mL). In the data set with Δarr M. abscessus, this compound showed an MICΔorr of 0.13 µM. In data set [1], this compound came in with a ƒu of 0% and a plasma unbound fraction of 0%.
Consider `CO[C@H]1/C=C/O[C@@]2(C)Oc3c(C)c(O)c4c(c3C2=O)C2=NC3(CCN(CC(C)C)CC3)NC2=C(NC(=O)/C(C)=C/C=C/[C@H](C)[C@H](O)[C@@H](C)[C@@H](O)[C@@H](C)[C@H](OC(=O)c2ccc(-c3ccccc3)cc2)[C@@H]1C)C4=O` [UMN28], for which the MICWT with M. abscessus ATCC 19977 turned out to be 0.85 µM. For the same compound, the MIC in the data set with Mycobacterium abscessus was 850 nM (≈ 0.837 µg/mL). The compound also returned an MICΔorr against Δarr M. abscessus of 1.00 µM. Besides, in data set [1], the ƒu came out at 0% and the plasma unbound fraction is given as 0%.
On to `CO[C@H]1/C=C/O[C@@]2(C)Oc3c(C)c(O)c4c(c3C2=O)C2=NC3(CCN(CC(C)C)CC3)NC2=C(NC(=O)/C(C)=C/C=C/[C@H](C)[C@H](O)[C@@H](C)[C@@H](O)[C@@H](C)[C@H](OC(=O)c2ccncc2)[C@@H]1C)C4=O` [UMN47], for which the MICWT against M. abscessus ATCC 19977 was determined as 0.017 µM. The minimal inhibitory concentration (MIC) in the data set on Mycobacterium abscessus turned out to be 17 nM (≈ 0.0155 µg/mL). The MICΔorr with Δarr M. abscessus amounted to 0.017 µM. In data set [1], this compound showed a ƒu of 2.0% and a plasma unbound fraction of 2.00%.
On to `CO[C@H]1/C=C/O[C@@]2(C)Oc3c(C)c(O)c4c(c3C2=O)C2=NC3(CCN(CC(C)C)CC3)NC2=C(NC(=O)/C(C)=C/C=C/[C@H](C)[C@H](O)[C@@H](C)[C@@H](O)[C@@H](C)[C@H](OC(=O)c2ccccn2)[C@@H]1C)C4=O` [UMN48], for which the MICWT against M. abscessus ATCC 19977 amounted to 0.02 µM. For the same compound, in the data set on Mycobacterium abscessus, the MIC came out at 20 nM (≈ 0.0182 µg/mL). Besides, in the data set with Δarr M. abscessus, the MICΔorr was 0.026 µM. Moreover, in data set [1], the ƒu was found to be 3.0% and the plasma unbound fraction is 2.95%.
On the same counts, the results for `CO[C@H]1/C=C/O[C@@]2(C)Oc3c(C)c(O)c4c(c3C2=O)C2=NC3(CCN(CC(C)C)CC3)NC2=C(NC(=O)/C(C)=C/C=C/[C@H](C)[C@H](O)[C@@H](C)[C@@H](O)[C@@H](C)[C@H](OC(=O)c2ccnnc2)[C@@H]1C)C4=O` [UMN49] are 0.033 µM, 33 nM (≈ 0.0301 µg/mL), 0.034 µM, 8.2% and 8.22%.
`CO[C@H]1/C=C/O[C@@]2(C)Oc3c(C)c(O)c4c(c3C2=O)C2=NC3(CCN(CC(C)C)CC3)NC2=C(NC(=O)/C(C)=C/C=C/[C@H](C)[C@H](O)[C@@H](C)[C@@H](O)[C@@H](C)[C@H](OC(=O)c2ccncn2)[C@@H]1C)C4=O` [UMN50] yielded an MICWT against M. abscessus ATCC 19977 of 0.035 µM. Moreover, the MIC with Mycobacterium abscessus is 35 nM (≈ 0.0319 µg/mL). In the data set with Δarr M. abscessus, this compound showed an MICΔorr of 0.036 µM. In data set [1], this compound came in with a ƒu of 7.2% and a plasma unbound fraction of 7.22%.
The corresponding values for `CO[C@H]1/C=C/O[C@@]2(C)Oc3c(C)c(O)c4c(c3C2=O)C2=NC3(CCN(CC(C)C)CC3)NC2=C(NC(=O)/C(C)=C/C=C/[C@H](C)[C@H](O)[C@@H](C)[C@@H](O)[C@@H](C)[C@H](OC(=O)c2cnccn2)[C@@H]1C)C4=O` [UMN51] are 0.03 µM, 30 nM (≈ 0.0273 µg/mL), 0.027 µM, 7.0% and 6.96%.
On to `CO[C@H]1/C=C/O[C@@]2(C)Oc3c(C)c(O)c4c(c3C2=O)C2=NC3(CCN(CC(C)C)CC3)NC2=C(NC(=O)/C(C)=C/C=C/[C@H](C)[C@H](O)[C@@H](C)[C@@H](O)[C@@H](C)[C@H](OC(=O)Nc2nncs2)[C@@H]1C)C4=O` [UMN69], for which, in the data set on M. abscessus ATCC 19977, the MICWT was found to be 0.026 µM. The minimum inhibitory concentration (MIC) in the data set on M. abscessus ATCC 19977 (Table 15, heterocyclic aromatic carbamates, read-out: WT Mab MIC) worked out at 26 nM (≈ 0.0242 µg/mL). The ƒAUC/MIC in data set [2] (Table 18) is listed as 26.5. Further, in data set [2] (mouse, in vivo), the CL was found to be 6.19 mL/kg/min, the F amounted to 45% and the Vd was 1.14 L/kg. This compound gave an AUCp.o. in data set [2] (mouse, in vivo, po) of 12103 ng·h/mL. The compound also displayed an MICΔorr in the data set with Δarr M. abscessus of 0.027 µM. Also, in data set [1], the ƒu amounted to 5.3% and the plasma unbound fraction is 5.30%.
On to `CO[C@H]1/C=C/O[C@@]2(C)Oc3c(C)c(O)c4c(c3C2=O)C2=NC3(CCN(CC(C)C)CC3)NC2=C(NC(=O)/C(C)=C/C=C/[C@H](C)[C@H](O)[C@@H](C)[C@@H](O)[C@@H](C)[C@H](OC(=O)c2ncccn2)[C@@H]1C)C4=O` [UMN92], for which the MIC in the data set on Mycobacterium abscessus worked out at 57 nM (≈ 0.0519 µg/mL). Also, in data set [1], the ƒu worked out at 9.8%.
On the same counts, the results for `CO[C@H]1/C=C/O[C@@]2(C)Oc3c(C)c(O)c4c(c3C2=O)C2=NC3(CCN(CC(C)C)CC3)NC2=C(NC(=O)/C(C)=C/C=C/[C@H](C)[C@H](O)[C@@H](C)[C@@H](O)[C@@H](C)[C@H](OC(=O)c2cncs2)[C@@H]1C)C4=O` [UMN93] are 57 nM (≈ 0.0522 µg/mL) and 1.6%.
For `CO[C@H]1/C=C/O[C@@]2(C)Oc3c(C)c(O)c4c(c3C2=O)C2=NC3(CCN(CC(C)C)CC3)NC2=C(NC(=O)/C(C)=C/C=C/[C@H](C)[C@H](O)[C@@H](C)[C@@H](O)[C@@H](C)[C@H](OC(=O)c2cccnn2)[C@@H]1C)C4=O` [UMN111], the MIC in the data set with Mycobacterium abscessus came out at 51 nM (≈ 0.0465 µg/mL). In data set [1], this compound returned a ƒu of 12.7%.

One may read the MIC as the least concentration at which growth counts as inhibited. For orientation: Vd means a proportionality between amount in the body and measured concentration, not a real space.
